Assay results taken from PubChem BioAssay AID2060625 (Molecular Pharmacology Branch, DTP, NCI, 2025).
pIC50: −log10 of the molar value.

Test system: 186277-243-T-J2-PDC spheroids with HUVEC/MSC, viability
Assay: Anticancer human tumor 186277-243-T-J2-PDC patient-derived colon adenocarcinoma cell line growth inhibition [CLK]
Conditions: for pIC50: curve of first compound; for viability, T/C: stronger effect = lower value
Summary of the method: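 Multi-cell-type spheroids combined patient-derived tumor cells with HUVEC endothelial cells and human mesenchymal stem cells. Paired agents were dosed in half-log steps down from about clinical Cmax, or from 10 microM where Cmax was unknown.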
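Note: compound exposure lasted seven days before readout.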
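Throughout, for viability, T/C: 100% = DMSO vehicle control wells.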

COc1cccc2c1C(=O)c1c(O)c3c(c(O)c1C2=O)CC(O)(C(=O)CO)CC3OC1CC(N)C(O)C(C)O1 (configuration not stated) + CNC(=O)c1ccc(Nc2nc(OC3CCCC3)c3c(-c4ccc5nc(C)oc5c4)c[nH]c3n2)c(OC)c1
pIC50 (second compound 0.0316 µM): 6.79 | pIC50 (second compound 0.1 µM): 6.86 | pIC50 (second compound 0.316 µM): 7.18 | pIC50 (second compound 1 µM): > 7.50 | pIC50 (second compound 3.16 µM): > 7.50 | pIC50 (second compound 10 µM): > 7.50 | viability, T/C (second compound 0.0316 µM, first compound 0.0316 µM): 112% | viability, T/C (second compound 0.0316 µM, first compound 0.1 µM): 73.5% | viability, T/C (second compound 0.0316 µM, first compound 0.316 µM): 17.3% | viability, T/C (second compound 0.0316 µM, first compound 1 µM): 0.3% | viability, T/C (second compound 0.0316 µM, first compound 3.16 µM): 3.88% | viability, T/C (second compound 0.0316 µM, first compound 10 µM): 1.97% | viability, T/C (second compound 0.1 µM, first compound 0.0316 µM): 72.2% | viability, T/C (second compound 0.1 µM, first compound 0.1 µM): 64.4% | viability, T/C (second compound 0.1 µM, first compound 0.316 µM): 13% | viability, T/C (second compound 0.1 µM, first compound 1 µM): 0.2% | viability, T/C (second compound 0.1 µM, first compound 3.16 µM): 1.92% | viability, T/C (second compound 0.1 µM, first compound 10 µM): 4.82% | viability, T/C (second compound 0.316 µM, first compound 0.0316 µM): 52.4% | viability, T/C (second compound 0.316 µM, first compound 0.1 µM): 48.7% | viability, T/C (second compound 0.316 µM, first compound 0.316 µM): 10.6% | viability, T/C (second compound 0.316 µM, first compound 1 µM): 1.25% | viability, T/C (second compound 0.316 µM, first compound 3.16 µM): 2.88% | viability, T/C (second compound 0.316 µM, first compound 10 µM): 1.07% | viability, T/C (second compound 1 µM, first compound 0.0316 µM): 40.7% | viability, T/C (second compound 1 µM, first compound 0.1 µM): 27.5% | viability, T/C (second compound 1 µM, first compound 0.316 µM): 3.75% | viability, T/C (second compound 1 µM, first compound 1 µM): 2.42% | viability, T/C (second compound 1 µM, first compound 3.16 µM): 6.62% | viability, T/C (second compound 1 µM, first compound 10 µM): 3.37% | viability, T/C (second compound 3.16 µM, first compound 0.0316 µM): 34.2% | viability, T/C (second compound 3.16 µM, first compound 0.1 µM): 19.9% | viability, T/C (second compound 3.16 µM, first compound 0.316 µM): 3.14% | viability, T/C (second compound 3.16 µM, first compound 1 µM): 2.25% | viability, T/C (second compound 3.16 µM, first compound 3.16 µM): 1.39% | viability, T/C (second compound 3.16 µM, first compound 10 µM): 1.97% | viability, T/C (second compound 10 µM, first compound 0.0316 µM): 34.8% | viability, T/C (second compound 10 µM, first compound 0.1 µM): 16.9% | viability, T/C (second compound 10 µM, first compound 0.316 µM): 4.4% | viability, T/C (second compound 10 µM, first compound 1 µM): 2.28% | viability, T/C (second compound 10 µM, first compound 3.16 µM): 3.08% | viability, T/C (second compound 10 µM, first compound 10 µM): 3.22%
